Reference: patent publication US7834028B2, “Pyrazolo-tetrahydro pyridine derivatives as orexin receptor antagonists” (Actelion Pharmaceuticals Ltd., priority 2006, dated 2010)
pIC50: −log10 of the molar value.

How the values were obtained:
[1] = molecular target: T1, human orexin-1 receptor (Homo sapiens, UniProt O43613); assay: Intracellular calcium measurements (FLIPR), orexin-A induced, CHO cells expressing human orexin-1 receptor; format: cell-based; conditions: 10 nM orexin-A as agonist, read-out: IC50 OX1
T1 construct: expressed in transfected cells; host or cells: CHO cells (G418 selection)
T1 sequence (O43613 1-425): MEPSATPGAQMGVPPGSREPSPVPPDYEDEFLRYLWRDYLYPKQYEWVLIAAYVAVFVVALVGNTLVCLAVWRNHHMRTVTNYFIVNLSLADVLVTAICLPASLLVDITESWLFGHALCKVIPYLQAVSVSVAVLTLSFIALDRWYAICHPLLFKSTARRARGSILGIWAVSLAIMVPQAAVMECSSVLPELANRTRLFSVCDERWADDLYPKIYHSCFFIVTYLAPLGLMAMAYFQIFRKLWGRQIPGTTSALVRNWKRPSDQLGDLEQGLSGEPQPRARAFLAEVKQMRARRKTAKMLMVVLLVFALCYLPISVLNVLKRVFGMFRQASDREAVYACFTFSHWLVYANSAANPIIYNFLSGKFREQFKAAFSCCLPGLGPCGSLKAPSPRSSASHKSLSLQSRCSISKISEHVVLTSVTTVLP
Protocol: (§1) The orexin receptor antagonistic activity of the compounds of formula (I) and/or (Ia) is determined in accordance with the following experimental method.
(§2) Intracellular Calcium Measurements:
(§3) Chinese hamster ovary (CHO) cells expressing the human orexin-1 receptor and the human orexin-2 receptor, respectively, are grown in culture medium (Ham F-12 with L-Glutamine) containing 300 μg/ml G418, 100 U/ml penicillin, 100 μg/ml streptomycin and 10% inactivated fetal calf serum (FCS). The cells are seeded at 80'000 cells/well into 96-well black clear bottom sterile plates (Costar) which have been precoated with 1% gelatine in Hanks' Balanced Salt Solution (HBSS). All reagents are from Gibco BRL. The seeded plates are incubated overnight at 37° C. in 5% CO2.
(§4) Human orexin-A as an agonist is prepared as 1 mM stock solution in methanol:water (1:1), diluted in HBSS containing 0.1% bovine serum albumin (BSA) and 2 mM HEPES for use in the assay at a final concentration of 10 nM.
(§5) Antagonists are prepared as 10 mM stock solution in DMSO, then diluted in 96-well plates, first in DMSO, then in HBSS containing 0.1% bovine serum albumin (BSA) and 2 mM HEPES.
(§6) On the day of the assay, 100 μl of loading medium (HBSS containing 1% FCS, 2 mM HEPES, 5 mM probenecid (Sigma) and 3 μM of the fluorescent calcium indicator fluo-3 AM (1 mM stock solution in DMSO with 10% pluronic acid) (Molecular Probes) is added to each well.
(§7) The 96-well plates are incubated for 60 min at 37° C. in 5% CO2. The loading solution is then aspirated and cells are washed 3 times with 200 μl HBSS containing 2.5 mM probenecid, 0.1% BSA, 2 mM HEPES. 100 μl of that same buffer is left in each well.
(§8) Within the Fluorescent Imaging Plate Reader (FLIPR, Molecular Devices), antagonists are added to the plate in a volume of 50 μl, incubated for 20 min and finally 100 μl of agonist is added. Fluorescence is measured for each well at 1 second intervals, and the height of each fluorescence peak is compared to the height of the fluorescence peak induced by 10 nM orexin-A with buffer in place of antagonist. For each antagonist, IC50 value (the concentration of compound needed to inhibit 50% of the agonistic response) is determined. Antagonistic activities of compounds are in the nanomolar range with respect to OX1 and OX2 receptors.

[2] = molecular target: T2, human orexin-2 receptor (Homo sapiens, UniProt O43614); assay: Intracellular calcium measurements (FLIPR), orexin-A induced, CHO cells expressing human orexin-2 receptor; format: cell-based; conditions: 10 nM orexin-A as agonist, read-out: IC50 OX2
T2 construct: expressed in transfected cells; host or cells: CHO cells (G418 selection)
T2 sequence (O43614 1-444): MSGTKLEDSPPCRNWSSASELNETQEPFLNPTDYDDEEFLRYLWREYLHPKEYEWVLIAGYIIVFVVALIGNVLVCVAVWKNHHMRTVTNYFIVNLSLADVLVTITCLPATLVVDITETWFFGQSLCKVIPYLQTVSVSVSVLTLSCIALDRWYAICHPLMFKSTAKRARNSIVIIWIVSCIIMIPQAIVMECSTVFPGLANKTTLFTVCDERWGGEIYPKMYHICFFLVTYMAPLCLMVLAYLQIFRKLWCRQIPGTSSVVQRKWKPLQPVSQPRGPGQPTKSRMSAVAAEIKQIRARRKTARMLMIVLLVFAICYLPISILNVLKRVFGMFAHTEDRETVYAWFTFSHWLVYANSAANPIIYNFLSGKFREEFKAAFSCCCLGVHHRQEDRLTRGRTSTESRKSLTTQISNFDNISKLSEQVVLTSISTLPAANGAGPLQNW
Protocol: as §1, §2, §3, §4, §5, §6, §7, §8

pIC50 [1]	pIC50 [2]	SMILES
7.31	8.70	CCn1nc(C)c2c1CCN([C@@H](C(=O)NC)c1ccccc1)[C@H]2CCc1ccc(C)c(F)c1 [Example 32, 2-{1-Ethyl-4-[2-(3-fluoro-4-methyl-phenyl)-ethyl]-3-methyl-1,4,6,7-tetrahydro-pyrazolo[4,3-c]pyridin-5-yl}-N-methyl-2-phenyl-acetamide]
7.12	8.40	CCn1nc(C)c2c1CCN([C@@H](C(=O)NC)c1ccccc1)[C@H]2CCc1ccc(C)cc1 (stereo in doubt) [Example 6, 2-[1-Ethyl-3-methyl-4-(2-p-tolyl-ethyl)-1,4,6,7-tetrahydro-pyrazolo[4,3-c]pyridin-5-yl]-N-methyl-2-phenyl-acetamide]
7.31	8.52	CCn1nc(C)c2c1CCN(C(C(=O)NC)c1ccccc1)C2CCc1cc(C(F)(F)F)ccc1F (stereo not drawn) [Example 3, 2-{1-Ethyl-4-[2-(2-fluoro-5-trifluoromethyl-phenyl)-ethyl]-3-methyl-1,4,6,7-tetrahydro-pyrazolo[4,3-c]pyridin-5-yl}-N-methyl-2-phenyl-acetamide]
7.28	8.10	CCn1nc(C)c2c1CCN([C@@H](C(=O)NC)c1ccccc1)[C@H]2CCc1ccc(C(F)(F)F)cc1F [Example 31, 2-{1-Ethyl-4-[2-(2-fluoro-4-trifluoromethyl-phenyl)-ethyl]-3-methyl-1,4,6,7-tetrahydro-pyrazolo[4,3-c]pyridin-5-yl}-N-methyl-2-phenyl-acetamide]
7.70	8.40	CCn1nc(C)c2c1CCN([C@@H](C(=O)NC)c1ccccc1)[C@H]2CCc1ccc(C)c(C)c1 [Example 33, 2-{4-[2-(3,4-Dimethyl-phenyl)-ethyl]-1-ethyl-3-methyl-1,4,6,7-tetrahydro-pyrazolo[4,3-c]pyridin-5-yl}-N-methyl-2-phenyl-acetamide]
6.88	8.15	CCn1nc(C)c2c1CCN([C@@H](C(=O)NC)c1ccccc1)[C@H]2CCc1ccc(C)cc1C [Example 35, 2-{4-[2-(2,4-Dimethyl-phenyl)-ethyl]-1-ethyl-3-methyl-1,4,6,7-tetrahydro-pyrazolo[4,3-c]pyridin-5-yl}-N-methyl-2-phenyl-acetamide]
